Measurements taken from PMC4601594, “An active site–tail interaction in the structure of hexahistidine-tagged Thermoplasma acidophilum citrate synthase” (Acta Crystallographica. Section F, Structural Biology …, 2015).

Legend:
[1] = biological target: T1, citrate synthase (TpCSH6) (Thermoplasma acidophilum, UniProt P21553); experiment: fluorescence titration of the TpCSH6–OAA complex (CitMX formation); also competitive inhibition versus AcCoA, Ki =[…]; format: binding
T1 construct: gene gltA; full-length TpCS (lacking N-terminal Met) with C-terminal His6 tag (TpCSH6)
T1 sequence (P21553 2-385): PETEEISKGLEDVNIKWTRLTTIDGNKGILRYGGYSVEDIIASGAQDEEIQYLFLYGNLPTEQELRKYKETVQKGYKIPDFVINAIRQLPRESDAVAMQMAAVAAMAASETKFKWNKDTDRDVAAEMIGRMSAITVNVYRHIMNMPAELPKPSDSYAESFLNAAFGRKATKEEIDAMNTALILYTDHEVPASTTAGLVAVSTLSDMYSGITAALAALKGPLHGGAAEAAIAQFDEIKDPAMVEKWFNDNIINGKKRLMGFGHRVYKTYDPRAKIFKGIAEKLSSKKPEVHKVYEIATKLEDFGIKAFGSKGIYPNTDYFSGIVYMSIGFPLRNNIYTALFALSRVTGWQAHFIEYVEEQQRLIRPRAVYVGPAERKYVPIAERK

[2] = biological target: T1, citrate synthase (TpCSH6); experiment: fluorescence titration (Trp348 quenching); format: binding
[3] = biological target: T2, citrate synthase (TpCSH6-H222Q) (Thermoplasma acidophilum, UniProt P21553, H223Q); experiment: fluorescence titration (Trp348 quenching); format: binding
T2 construct: gene gltA; full-length TpCS with C-terminal His6 tag, H222Q mutant

purified protein = substrate: CC(=O)SCCNC(=O)CCNC(=O)[C@H](O)C(C)(C)COP(=O)(O)OP(=O)(O)OC[C@H]1O[C@@H](n2cnc3c(N)ncnc32)[C@H](O)[C@@H]1OP(=O)(O)O; experiment: purified protein; conditions: oxaloacetate (co-substrate) AcCoA binding site (His222, Asp317)

T2 sequence (P21553 2-385 H223Q): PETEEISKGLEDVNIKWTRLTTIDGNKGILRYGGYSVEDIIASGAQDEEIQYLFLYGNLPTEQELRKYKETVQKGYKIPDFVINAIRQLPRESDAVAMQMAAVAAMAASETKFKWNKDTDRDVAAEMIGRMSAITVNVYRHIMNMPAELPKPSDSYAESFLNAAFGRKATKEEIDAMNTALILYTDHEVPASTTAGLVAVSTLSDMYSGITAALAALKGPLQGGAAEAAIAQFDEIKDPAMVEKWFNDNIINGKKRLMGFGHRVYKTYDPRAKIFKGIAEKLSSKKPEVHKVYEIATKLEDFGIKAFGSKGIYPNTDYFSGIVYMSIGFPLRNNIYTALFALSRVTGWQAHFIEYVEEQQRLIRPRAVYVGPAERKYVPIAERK

Question: `CC(=O)CCCNC(=O)CCNC(=O)[C@H](O)C(C)(C)COP(=O)(O)OP(=O)(O)OC[C@H]1O[C@@H](n2cnc3c(N)ncnc32)[C@H](O)[C@@H]1OP(=O)(O)O` [AcMX, dethiaacetyl-CoA] was tested. Which Kd [1] did it give?
Answer: 1500 nM

Question: With `O=C(O)CC(=O)C(=O)O` [OAA, oxaloacetate] as the molecule, how does the Kd [2] read?
Answer: 760 nM

Question: What about the Kd [3] of the same molecule?
Answer: 19000 nM

B1: citrate synthase (TpCSH6) (Thermoplasma acidophilum DSM 1728) (protein)
chain: T1 sequence (P21553 2-385)
Question: How did the Km (purified protein) turn out when B1 was run?
Answer: 3.0 µM
